Converted amounts (≈) assume the structure as drawn. Counter-ions that a name gives are not always drawn. Like-named read-outs stand apart in the source and are kept apart here.
Assays:
[1] = Minimum dose which shows death immediately after injection (toxic dose); assay type: in vivo, mice; settings: acute death immediately after injection
Colon 26 = assay: Test for the pharmaceutical effect on mice: tumor growth inhibition of subcutaneously implanted Colon 26; settings: Mus musculus, Colon 26, iv, 504 h, read-out: in vivo I.R. (tumor growth inhibition rate)
Description: Test for the Pharmaceutical Effect on Mice:
Colon 26 which had been cloned subcutaneously in mice was cut with scissors, and implanted subcutaneously in mice by means of a trocar. One week later, the tumors were measured using calipers, and the volumes of the tumors were calculated. The mice were grouped (each group consisting of 3 mice). The test compound was dissolved with dimethylsulfoxide and diluted with 5% by volume Tween 80/saline. A 0.2 ml of the solution was injected intravenously once a day on Day 7, Day 11 and Day 15 after the implantation. On Day 21 after the implantation, the volumes of the tumors were measured. The volume of the tumor and the tumor growth inhibition rate (I.R.) were calculated using the following expressions. [formula]
^a) Administered intravenously once a day on day 7, day 11 and day 15

[2] = tested on: Mouse P388 leukemia cells; assay: Evaluation of cytotoxicity: growth inhibition of mouse P388 leukemia cells (MTT method); assay type: cell-based; settings: 48 h, 37° C., 2 days, read-out: in vitro IC50 (50% growth inhibitory concentration)
Description: Evaluation of Cytotoxicity:
Mouse P388 leukemia cells were used as cancer cells, and a RPMI-1640 medium containing 5-μM 2-mercaptoethanol and 10% fetal bovine serum was used in the incubation. The above-mentioned cells were inoculated on a 96-well microplate in an amount of 1×10^4 cells/50 μl/well, and an aqueous solution of a test compound (4 μg/ml) was added thereto in an amount of 25 μl/well. The mixture was incubated at 37° C. for 2 days. Then, the number of live cells were counted using the MTT method, and a dose-response curve was then prepared. A 50% growth inhibitory concentration (IC50) given for the test compound was calculated according to the dose-response curve.

[3] = 10 mg/kg, intravenously once a day on day 7, day 11 and day 15, tumor volume on Day 21
[4] = 40 mg/kg, intravenously once a day on day 7, day 11 and day 15, tumor volume on Day 21
[5] = 80 mg/kg, intravenously once a day on day 7, day 11 and day 15, tumor volume on Day 21

Q: What does the source list for `COc1ccc(/C=C(/C#N)c2cc(OC)c(OC)c(OC)c2)cc1NC(=O)[C@@H](N)CC(=O)O` [(E)-3-(3-Amino-4-methoxyphenyl)-2-(3,4,5-trimethoxyphenyl)-prop-2-enenitrile-L-aspartylamide Hydrochloride]?
A: Toxic Dose (minimum dose which show death immediately after injection) [1]: 40 mg/kg; inhibition in vivo at 10 mg/kg (Colon 26; [3]): 1.7%; IC50 [2]: 2 ng/mL

Q: Which results are given for `COc1ccc(/C=C(/C#N)c2cc(OC)c(OC)c(OC)c2)cc1NC(=O)[C@@H](N)CCCN` [(E)-3-(3-Amino-4-methoxyphenyl)-2-(3,4,5-trimethoxyphenyl)-prop-2-enenitrile-L-ornithineamide Dihydrochloride]?
A: inhibition in vivo at 10 mg/kg (Colon 26): 48.9%; IC50 [2]: 50 ng/mL

Q: With `COc1ccc(/C=C(/C#N)c2cc(OC)c(OC)c(OC)c2)cc1NC(=O)[C@H](C)N` [(E)-3-(3-Amino-4-methoxyphenyl)-2-(3,4,5-trimethoxyphenyl)-prop-2-enenitrile-L-alanineamide Hydrochloride] as the molecule, how does the “Toxic Dose (minimum dose which show death immediately after injection)” value (“Toxic Dose” below) [1] read?
A: The value was 80 mg/kg.

Q: What about the inhibition in vivo at 20 mg/kg (Colon 26; 20 mg/kg, intravenously once a day on day 7, day 11 and day 15, tumor volume on Day 21) of the same molecule?
A: Its inhibition in vivo at 20 mg/kg is 71%.

Q: And the IC50 [2]?
A: The IC50 was 0.5 ng/mL.

Q: With `COc1ccc(/C=C(/C#N)c2cc(OC)c(OC)c(OC)c2)cc1NC(=O)[C@@H](N)[C@@H](C)O` [(E)-3-(3-Amino-4-methoxyphenyl)-2-(3,4,5-trimethoxyphenyl)-prop-2-enenitrile-L-threonineamide Hydrochloride] as the molecule, how does the inhibition in vivo at 40 mg/kg (Colon 26; [4]) read?
A: Its inhibition in vivo at 40 mg/kg is 67%.

Q: What about the IC50 [2] of the same molecule?
A: The IC50 was 6 ng/mL.

Q: With `COc1ccc(/C=C\c2cc(OC)c(OC)c(OC)c2)cc1NC(=O)CN` [(Z)-1-(3-Amino-4-methoxyphenyl)-2-(3,4,5-trimethoxyphenyl)-ethene-glycineamide] as the molecule, how does the “Toxic Dose” value [1] read?
A: Its value is 80 mg/kg.

Q: What about the inhibition in vivo at 40 mg/kg (Colon 26) of the same molecule?
A: Its inhibition in vivo at 40 mg/kg is 33.3%.

Q: What about the IC50 [2] of the same molecule?
A: Its IC50 is 2 ng/mL (≈ 5.37 nM).

Q: Which inhibition in vivo at 80 mg/kg (Colon 26; [5]) does the source give for `COc1ccc(/C=C\c2cc(OC)c(OC)c(OC)c2)cc1NC(=O)[C@@H](N)CO` [(Z)-1-(3-Amino-4-methoxyphenyl)-2-(3,4,5-trimethoxyphenyl)-ethene-L-serineamide] here?
A: Its inhibition in vivo at 80 mg/kg is 72.9%.

Q: What about the IC50 [2] of the same molecule?
A: The IC50 was 4 ng/mL (≈ 9.94 nM).

Q: Which inhibition in vivo at 80 mg/kg (Colon 26; [5]) does the source give for `COc1ccc(/C=C(/C#N)c2cc(OC)c(OC)c(OC)c2)cc1NC(=O)[C@@H](N)CO` [(E)-3-(3-Amino-4-methoxyphenyl)-2-(3,4,5-trimethoxyphenyl)-prop-2-enenitrile-L-serineamide Hydrochloride] here?
A: The inhibition in vivo at 80 mg/kg was 75%.

Q: And the IC50 [2]?
A: Its IC50 is 2 ng/mL.

Q: What does the source list for `COc1ccc(/C=C\c2cc(OC)c(OC)c(OC)c2)cc1NC(=O)[C@H](C)N` [(Z)-1-(3-Amino-4-methoxyphenyl)-2-(3,4,5-trimethoxyphenyl)-ethene-L-alanineamide]?
A: Toxic Dose (minimum dose which show death immediately after injection) [1]: 80 mg/kg; inhibition in vivo at 40 mg/kg (Colon 26): 51.9%; IC50 [2]: 2 ng/mL (≈ 5.18 nM)

Q: What does the source list for `COc1ccc(/C=C(/C#N)c2cc(OC)c(OC)c(OC)c2)cc1NC(=O)[C@@H](N)CCCCN` [(E)-3-(3-Amino-4-methoxyphenyl)-2-(3,4,5-trimethoxyphenyl)-prop-2-enenitrile-L-lysineamide Dihydrochloride]?
A: Toxic Dose (minimum dose which show death immediately after injection) [1]: 20 mg/kg; inhibition in vivo at 10 mg/kg (Colon 26; [3]): 33.8%; IC50 [2]: 13 ng/mL

Q: For `COc1ccc(/C=C\c2cc(OC)c(OC)c(OC)c2)cc1NC(=O)[C@@H](N)CC(C)C` [(Z)-1-(3-Amino-4-methoxyphenyl)-2-(3,4,5-trimethoxyphenyl)-ethene-L-leucineamide], which “Toxic Dose” value [1] is on record?
A: Its value is 40 mg/kg.

Q: What about the inhibition in vivo at 40 mg/kg (Colon 26) of the same molecule?
A: Its inhibition in vivo at 40 mg/kg is 50.9%.

Q: What about the IC50 [2] of the same molecule?
A: Its IC50 is 6 ng/mL (≈ 14 nM).

Q: With `COc1ccc(/C=C(/C#N)c2cc(OC)c(OC)c(OC)c2)cc1NC(=O)[C@@H]1CCCN1` [(E)-3-(3-Amino-4-methoxyphenyl)-2-(3,4,5-trimethoxyphenyl)-prop-2-enenitrile-L-prolineamide Hydrochloride] as the molecule, how does the “Toxic Dose” value [1] read?
A: The value was 40 mg/kg.

Q: And the inhibition in vivo at 40 mg/kg (Colon 26; [4])?
A: Its inhibition in vivo at 40 mg/kg is 68.9%.

Q: What about the IC50 [2] of the same molecule?
A: Its IC50 is 200 ng/mL.

Q: For `COc1ccc(/C=C(/C#N)c2cc(OC)c(OC)c(OC)c2)cc1NC(=O)[C@@H](N)CCC(=O)O` [(E)-3-(3-Amino-4-methoxyphenyl)-2-(3,4,5-trimethoxyphenyl)-prop-2-enenitrile-L-glutamylamide Hydrochloride], which “Toxic Dose” value [1] is on record?
A: Its value is 80 mg/kg.

Q: What about the inhibition in vivo at 40 mg/kg (Colon 26; [4]) of the same molecule?
A: Its inhibition in vivo at 40 mg/kg is 77%.

Q: And the IC50 [2]?
A: Its IC50 is 4 ng/mL.

Q: With `COc1ccc(/C=C(/C#N)c2cc(OC)c(OC)c(OC)c2)cc1NC(=O)[C@@H](N)Cc1ccccc1` [(E)-3-(3-Amino-4-methoxyphenyl)-2-(3,4,5-trimethoxyphenyl)-prop-2-enenitrile-L-phenylalanineamide Hydrochloride] as the molecule, how does the “Toxic Dose” value [1] read?
A: The value was 80 mg/kg.

Q: And the inhibition in vivo at 40 mg/kg (Colon 26; [4])?
A: Its inhibition in vivo at 40 mg/kg is 76.7%.

Q: And the IC50 [2]?
A: The IC50 was 5 ng/mL.

Q: With `COc1ccc(/C=C(/C#N)c2cc(OC)c(OC)c(OC)c2)cc1NC(=O)CN` [(E)-3-(3-Amino-4-methoxyphenyl)-2-(3,4,5-trimethoxyphenyl)-prop-2-enenitrile-glycineamide Hydrochloride] as the molecule, how does the “Toxic Dose” value [1] read?
A: Its value is 40 mg/kg.

Q: What about the inhibition in vivo at 20 mg/kg (Colon 26) of the same molecule?
A: The inhibition in vivo at 20 mg/kg was 85.7%.

Q: And the IC50 [2]?
A: Its IC50 is 3 ng/mL.

Q: For `COc1ccc(/C=C\c2cc(OC)c(OC)c(OC)c2)cc1NC(=O)[C@@H](N)[C@@H](C)O` [(Z)-1-(3-Amino-4-methoxyphenyl)-2-(3,4,5-trimethoxyphenyl)-ethene-L-threonineamide], which inhibition in vivo at 80 mg/kg (Colon 26) is on record?
A: The inhibition in vivo at 80 mg/kg was 62.2%.

Q: And the IC50 [2]?
A: Its IC50 is 6 ng/mL (≈ 14.4 nM).

Reference: patent US5674906A, “Stilbene compounds and pharmaceutical compositions containing them” (Ajinomoto Co., Inc., priority 1995, dated 1997)
